Experimental data published in the NIST ThermoML archive (doi:10.1021/je0602925).
Numbers after ± are expanded uncertainties.

Experiment: activity coefficient (dimensionless); of the first substance listed, at infinite dilution; xn = mol fraction of the nth substance listed
Conditions: Liquid, Chromatography, x1 = 0

Row | SMILES | activity coefficient (308.15 K) | activity coefficient (318.15 K) | activity coefficient (328.15 K)
1 | CO [methanol] + CCCCCCCCCCCCCC[P+](CCCCCC)(CCCCCC)CCCCCC.F[B-](F)(F)F | 6.68 ± 0.46 | 6.38 ± 0.43 | 6.1 ± 0.42
2 | CCCCCC [hexane] + CCCCCCCCCCCCCC[P+](CCCCCC)(CCCCCC)CCCCCC.O=S(=O)([N-]S(=O)(=O)C(F)(F)F)C(F)(F)F | 0.766 ± 0.05 | 0.751 ± 0.049 | 0.742 ± 0.049
3 | CCCCCCCC [octane] + CCCCCCCCCCCCCC[P+](CCCCCC)(CCCCCC)CCCCCC.O=S(=O)([N-]S(=O)(=O)C(F)(F)F)C(F)(F)F | 0.843 ± 0.054 | 0.825 ± 0.053 | 0.814 ± 0.053
4 | CCCCCCCC [octane] + CCCCCCCCCCCCCC[P+](CCCCCC)(CCCCCC)CCCCCC.F[B-](F)(F)F | 1.15 ± 0.073 | 1.11 ± 0.071 | 1.09 ± 0.069
5 | CCCCC [pentane] + CCCCCCCCCCCCCC[P+](CCCCCC)(CCCCCC)CCCCCC.F[B-](F)(F)F | 0.722 ± 0.048 | 0.706 ± 0.047 | 0.695 ± 0.047
6 | C1CCCCC1 [cyclohexane] + CCCCCCCCCCCCCC[P+](CCCCCC)(CCCCCC)CCCCCC.[Cl-] | 0.631 ± 0.044 | 0.627 ± 0.043 | 0.625 ± 0.043
7 | C=CCCCCC [1-heptene] + CCCCCCCCCCCCCC[P+](CCCCCC)(CCCCCC)CCCCCC.O=S(=O)([N-]S(=O)(=O)C(F)(F)F)C(F)(F)F | 0.558 ± 0.04 | 0.549 ± 0.04 | 0.543 ± 0.04
8 | C1CCCCCC1 [cycloheptane] + CCCCCCCCCCCCCC[P+](CCCCCC)(CCCCCC)CCCCCC.[Cl-] | 0.861 ± 0.055 | 0.753 ± 0.05 | 0.763 ± 0.05
9 | CCCCCCCC [octane] + CCCCCCCCCCCCCC[P+](CCCCCC)(CCCCCC)CCCCCC.[Cl-] | 0.847 ± 0.054 | 0.831 ± 0.054 | 0.821 ± 0.053
10 | C1CCCCC1 [cyclohexane] + CCCCCCCCCCCCCC[P+](CCCCCC)(CCCCCC)CCCCCC.O=S(=O)([N-]S(=O)(=O)C(F)(F)F)C(F)(F)F | 0.612 ± 0.043 | 0.609 ± 0.043 | 0.607 ± 0.042
11 | CCCCC [pentane] + CCCCCCCCCCCCCC[P+](CCCCCC)(CCCCCC)CCCCCC.O=S(=O)([N-]S(=O)(=O)C(F)(F)F)C(F)(F)F | 0.611 ± 0.043 | 0.602 ± 0.042 | 0.597 ± 0.042
12 | CCCCCCC [heptane] + CCCCCCCCCCCCCC[P+](CCCCCC)(CCCCCC)CCCCCC.O=S(=O)([N-]S(=O)(=O)C(F)(F)F)C(F)(F)F | 0.783 ± 0.051 | 0.769 ± 0.05 | 0.761 ± 0.05
13 | C#CCCCC [1-hexyne] + CCCCCCCCCCCCCC[P+](CCCCCC)(CCCCCC)CCCCCC.[Cl-] | 0.449 ± 0.036 | 0.461 ± 0.036 | 0.468 ± 0.037
14 | CO [methanol] + CCCCCCCCCCCCCC[P+](CCCCCC)(CCCCCC)CCCCCC.O=S(=O)([N-]S(=O)(=O)C(F)(F)F)C(F)(F)F | 0.942 ± 0.059 | 0.958 ± 0.06 | 0.989 ± 0.062
15 | c1ccccc1 [benzene] + CCCCCCCCCCCCCC[P+](CCCCCC)(CCCCCC)CCCCCC.F[B-](F)(F)F | 0.37 ± 0.033 | 0.367 ± 0.033 | 0.366 ± 0.033
16 | C1CCCCCC1 [cycloheptane] + CCCCCCCCCCCCCC[P+](CCCCCC)(CCCCCC)CCCCCC.F[B-](F)(F)F | 1 ± 0.063 | 0.979 ± 0.061 | 0.965 ± 0.061
17 | C#CCCCC [1-hexyne] + CCCCCCCCCCCCCC[P+](CCCCCC)(CCCCCC)CCCCCC.O=S(=O)([N-]S(=O)(=O)C(F)(F)F)C(F)(F)F | 0.454 ± 0.036 | 0.463 ± 0.036 | 0.468 ± 0.037
18 | C=CCCCCCC [oct-1-ene] + CCCCCCCCCCCCCC[P+](CCCCCC)(CCCCCC)CCCCCC.F[B-](F)(F)F | 0.769 ± 0.05 | 0.748 ± 0.049 | 0.734 ± 0.049
19 | CCCCC [pentane] + CCCCCCCCCCCCCC[P+](CCCCCC)(CCCCCC)CCCCCC.[Cl-] | 0.607 ± 0.042 | 0.599 ± 0.042 | 0.594 ± 0.042
20 | CCCCCC [hexane] + CCCCCCCCCCCCCC[P+](CCCCCC)(CCCCCC)CCCCCC.[Cl-] | 0.766 ± 0.05 | 0.753 ± 0.05 | 0.746 ± 0.049
21 | C=CCCCCC [1-heptene] + CCCCCCCCCCCCCC[P+](CCCCCC)(CCCCCC)CCCCCC.F[B-](F)(F)F | 0.663 ± 0.045 | 0.647 ± 0.044 | 0.637 ± 0.044
22 | CO [methanol] + CCCCCCCCCCCCCC[P+](CCCCCC)(CCCCCC)CCCCCC.[Cl-] | 0.887 ± 0.056 | 0.879 ± 0.056 | 0.873 ± 0.056
23 | C=CCCCCCC [oct-1-ene] + CCCCCCCCCCCCCC[P+](CCCCCC)(CCCCCC)CCCCCC.[Cl-] | 0.567 ± 0.041 | 0.557 ± 0.04 | 0.552 ± 0.04
24 | C=CCCCCCC [oct-1-ene] + CCCCCCCCCCCCCC[P+](CCCCCC)(CCCCCC)CCCCCC.O=S(=O)([N-]S(=O)(=O)C(F)(F)F)C(F)(F)F | 0.617 ± 0.043 | 0.605 ± 0.042 | 0.598 ± 0.042

Row | SMILES | activity coefficient (308.15 K) | activity coefficient (318.15 K) | activity coefficient (328.15 K)
25 | C1CCCC1 [cyclopentane] + CCCCCCCCCCCCCC[P+](CCCCCC)(CCCCCC)CCCCCC.[Cl-] | 0.579 ± 0.041 | 0.576 ± 0.041 | 0.574 ± 0.041
26 | c1ccccc1 [benzene] + CCCCCCCCCCCCCC[P+](CCCCCC)(CCCCCC)CCCCCC.[Cl-] | 0.408 ± 0.034 | 0.403 ± 0.034 | 0.4 ± 0.034
27 | C=CCCCC [hex-1-ene] + CCCCCCCCCCCCCC[P+](CCCCCC)(CCCCCC)CCCCCC.[Cl-] | 0.477 ± 0.037 | 0.471 ± 0.037 | 0.468 ± 0.037
28 | C#CCCCCCC [1-octyne] + CCCCCCCCCCCCCC[P+](CCCCCC)(CCCCCC)CCCCCC.F[B-](F)(F)F | 0.387 ± 0.034 | 0.406 ± 0.034 | 0.417 ± 0.035
29 | CCCCCCC [heptane] + CCCCCCCCCCCCCC[P+](CCCCCC)(CCCCCC)CCCCCC.F[B-](F)(F)F | 1 ± 0.063 | 0.97 ± 0.061 | 0.952 ± 0.06
30 | C#CCCCC [1-hexyne] + CCCCCCCCCCCCCC[P+](CCCCCC)(CCCCCC)CCCCCC.F[B-](F)(F)F | 0.345 ± 0.032 | 0.358 ± 0.033 | 0.366 ± 0.033
31 | C#CCCCCCC [1-octyne] + CCCCCCCCCCCCCC[P+](CCCCCC)(CCCCCC)CCCCCC.[Cl-] | 0.494 ± 0.038 | 0.514 ± 0.038 | 0.526 ± 0.039
32 | CCO [ethanol] + CCCCCCCCCCCCCC[P+](CCCCCC)(CCCCCC)CCCCCC.[Cl-] | 0.74 ± 0.049 | 0.737 ± 0.049 | 0.735 ± 0.049
33 | C1CCCC1 [cyclopentane] + CCCCCCCCCCCCCC[P+](CCCCCC)(CCCCCC)CCCCCC.O=S(=O)([N-]S(=O)(=O)C(F)(F)F)C(F)(F)F | 0.562 ± 0.04 | 0.559 ± 0.04 | 0.558 ± 0.04
34 | C#CCCCCCC [1-octyne] + CCCCCCCCCCCCCC[P+](CCCCCC)(CCCCCC)CCCCCC.O=S(=O)([N-]S(=O)(=O)C(F)(F)F)C(F)(F)F | 0.511 ± 0.038 | 0.524 ± 0.039 | 0.532 ± 0.039
35 | C1CCCCCC1 [cycloheptane] + CCCCCCCCCCCCCC[P+](CCCCCC)(CCCCCC)CCCCCC.O=S(=O)([N-]S(=O)(=O)C(F)(F)F)C(F)(F)F | 0.787 ± 0.051 | 0.779 ± 0.051 | 0.774 ± 0.051
36 | C=CCCCC [hex-1-ene] + CCCCCCCCCCCCCC[P+](CCCCCC)(CCCCCC)CCCCCC.F[B-](F)(F)F | 0.57 ± 0.041 | 0.558 ± 0.04 | 0.551 ± 0.04
37 | C#CCCCCC [1-heptyne] + CCCCCCCCCCCCCC[P+](CCCCCC)(CCCCCC)CCCCCC.[Cl-] | 0.479 ± 0.037 | 0.494 ± 0.038 | 0.504 ± 0.038
38 | C#CCCCCC [1-heptyne] + CCCCCCCCCCCCCC[P+](CCCCCC)(CCCCCC)CCCCCC.F[B-](F)(F)F | 0.374 ± 0.033 | 0.389 ± 0.034 | 0.399 ± 0.034
39 | C=CCCCC [hex-1-ene] + CCCCCCCCCCCCCC[P+](CCCCCC)(CCCCCC)CCCCCC.O=S(=O)([N-]S(=O)(=O)C(F)(F)F)C(F)(F)F | 0.501 ± 0.038 | 0.494 ± 0.038 | 0.49 ± 0.037
40 | C#CCCCCC [1-heptyne] + CCCCCCCCCCCCCC[P+](CCCCCC)(CCCCCC)CCCCCC.O=S(=O)([N-]S(=O)(=O)C(F)(F)F)C(F)(F)F | 0.485 ± 0.037 | 0.496 ± 0.038 | 0.502 ± 0.038
41 | CCO [ethanol] + CCCCCCCCCCCCCC[P+](CCCCCC)(CCCCCC)CCCCCC.O=S(=O)([N-]S(=O)(=O)C(F)(F)F)C(F)(F)F | 0.884 ± 0.056 | 0.894 ± 0.057 | 0.902 ± 0.057
42 | CCCCCCC [heptane] + CCCCCCCCCCCCCC[P+](CCCCCC)(CCCCCC)CCCCCC.[Cl-] | 0.816 ± 0.053 | 0.803 ± 0.052 | 0.795 ± 0.052
43 | C=CCCCCC [1-heptene] + CCCCCCCCCCCCCC[P+](CCCCCC)(CCCCCC)CCCCCC.[Cl-] | 0.523 ± 0.039 | 0.515 ± 0.038 | 0.511 ± 0.038
44 | C1CCCC1 [cyclopentane] + CCCCCCCCCCCCCC[P+](CCCCCC)(CCCCCC)CCCCCC.F[B-](F)(F)F | 0.638 ± 0.044 | 0.63 ± 0.044 | 0.625 ± 0.043
45 | C1CCCCC1 [cyclohexane] + CCCCCCCCCCCCCC[P+](CCCCCC)(CCCCCC)CCCCCC.F[B-](F)(F)F | 0.73 ± 0.048 | 0.719 ± 0.048 | 0.712 ± 0.047
46 | CCO [ethanol] + CCCCCCCCCCCCCC[P+](CCCCCC)(CCCCCC)CCCCCC.F[B-](F)(F)F | 5.59 ± 0.38 | 5.36 ± 0.36 | 5.14 ± 0.35
47 | CCCCCC [hexane] + CCCCCCCCCCCCCC[P+](CCCCCC)(CCCCCC)CCCCCC.F[B-](F)(F)F | 0.968 ± 0.061 | 0.942 ± 0.059 | 0.925 ± 0.058
